Laboratory results reported in ChEMBL document CHEMBL5257105, “Identification and structure-activity relationships for a series of N, N-disubstituted 2-aminobenzothiazoles as potent inhibitors of S. aureus” (Bioorg Med Chem Lett, 2023).
Converted amounts (≈) assume the structure as drawn. “And” between values parts separate entries of the source, which are not always exact repeats. Equal values may be shown once. Each block holds one compound with its values, some of them ahead of it. The source made the active and inactive calls. The rule behind the calls is not given here.

Experiments:
[1] = (§1) Cytotoxicity against human A549 cells; format: toxicity, cell-based; conditions: A549 cells
Staphylococcus aureus [2] = experiment: Antibacterial activity against Staphylococcus aureus; format: functional
Escherichia coli [3] = experiment: Antibacterial activity against wild type Escherichia coli harbouring pore; format: functional
Escherichia coli [4] = experiment: Antibacterial activity against Escherichia coli; format: functional
Escherichia coli [5] = experiment: Antibacterial activity against […] Escherichia coli harbouring TolC-deficient mutant with pore; format: functional
Escherichia coli [6] = experiment: Antibacterial activity against […] Escherichia coli harbouring TolC-deficient mutant; format: functional
Pseudomonas aeruginosa [7] = experiment: Antibacterial activity against Pseudomonas aeruginosa PAO1; format: functional
Pseudomonas aeruginosa [8] = experiment: Antibacterial activity against Pseudomonas aeruginosa PAO1 harbouring delta6 mutant with pore; format: functional
Pseudomonas aeruginosa [9] = experiment: Antibacterial activity against Pseudomonas aeruginosa PAO1 harbouring pore; format: functional
A549 = experiment: as §1; format: toxicity, cell-based; conditions: a549
Staphylococcus aureus [10] = experiment: Antibacterial activity against Staphylococcus aureus ATCC 25923; format: functional
Staphylococcus aureus [11] = experiment: Antibacterial activity against Staphylococcus aureus ATCC 216; format: functional
Staphylococcus aureus [12] = experiment: Bacteriostatic activity against Staphylococcus aureus ATCC 25923 at 4 times MIC measured after 5 to 40 hrs by time kill assay; format: functional, organism-based; conditions: time 5-40 hrs
Staphylococcus aureus [13] = experiment: Bacteriostatic activity against Staphylococcus aureus ATCC 25923 at MIC measured after 5 to 40 hrs by time kill assay; format: functional, organism-based; conditions: time 5-40 hrs
Staphylococcus aureus [14] = experiment: Antibacterial activity against Staphylococcus aureus ATCC 215; format: functional
Staphylococcus aureus [15] = experiment: Antibacterial activity against Staphylococcus aureus ATCC 716; format: functional
Staphylococcus aureus [16] = experiment: Antibacterial activity against Staphylococcus aureus ATCC 701; format: functional
Staphylococcus aureus [17] = experiment: Antibacterial activity against Staphylococcus aureus ATCC 711; format: functional
Staphylococcus aureus [18] = experiment: Antibacterial activity against Staphylococcus aureus ATCC 223; format: functional
Staphylococcus aureus [19] = experiment: Antibacterial activity against Staphylococcus aureus ATCC 219; format: functional
Pseudomonas aeruginosa [20] = experiment: Antibacterial activity against Pseudomonas aeruginosa PAO1 harbouring delta6 mutant; format: functional
Staphylococcus aureus [21] = experiment: Bactericidal activity against Staphylococcus aureus ATCC 25923 at 16 times MIC measured after 9.5 to 40 hrs by time kill assay; format: functional, organism-based; conditions: time 9.5-40 hrs
Staphylococcus aureus [22] = experiment: Antibacterial activity against Staphylococcus aureus ATCC 217; format: functional
Acinetobacter baumannii = experiment: Antibacterial activity against Acinetobacter baumannii ATCC 17978; format: functional
Escherichia coli [23] = experiment: Antibacterial activity against Escherichia coli BW25113; format: functional
Staphylococcus aureus [24] = experiment: Bactericidal activity against Staphylococcus aureus ATCC 25923 at 16 times MIC measured after 7 to 24 hrs by time kill assay; format: functional, organism-based; conditions: time 7-24 hrs
Staphylococcus aureus [25] = experiment: Bacteriostatic activity against Staphylococcus aureus ATCC 25923 at MIC by time kill assay; format: functional, organism-based
Staphylococcus aureus [26] = experiment: Bacteriostatic activity against Staphylococcus aureus ATCC 25923 at 4 times MIC by time kill assay; format: functional, organism-based
[27] = Staphylococcus aureus, read-out: MIC
[28] = Staphylococcus aureus, read-out: MIC80

Structure (SMILES): Cc1cc(Cl)cc2sc(NC(=O)c3ccco3)nc12
CC50 [1]: 17.9 µM
MIC (Staphylococcus aureus [2]; [27]): > 100 µM

Structure (SMILES): Cc1cc(Cl)cc2sc(N(CC3CCC(N)CC3)C(=O)c3ccco3)nc12 (stereo not drawn)
MIC (Escherichia coli [3]): 100 µM (≈ 40.4 µg/mL)
MIC (Escherichia coli [4]): > 200 µM
MIC (Escherichia coli [5]): 25 µM (≈ 10.1 µg/mL)
MIC (Escherichia coli [6]): 50 µM (≈ 20.2 µg/mL)
MIC (Pseudomonas aeruginosa [7]): > 200 µM
MIC (Pseudomonas aeruginosa [8]): 12.5 µM (≈ 5.05 µg/mL)
MIC (Pseudomonas aeruginosa [9]): > 200 µM
MIC80 (Staphylococcus aureus [2]): 29.6 µM (≈ 12 µg/mL)
MIC80 (Staphylococcus aureus [2]; [28]): 19.8 µM (≈ 8 µg/mL)

Structure (SMILES): O=C(O)c1cn(C2CC2)c2cc(N3CCNCC3)c(F)cc2c1=O [CIPROFLOXACIN]
MIC (Staphylococcus aureus [10]): < 0.9 µM

Structure (SMILES): Cc1cc(Cl)cc2sc(N(CCCn3ccnc3)C(=O)c3ccco3)nc12
MIC (Staphylococcus aureus [11]): 4.4 µM (≈ 1.76 µg/mL)
Activity (Staphylococcus aureus [12]): Active
MIC (Pseudomonas aeruginosa [7]): > 100 µM
Activity (Staphylococcus aureus [13]): Active
MIC (Staphylococcus aureus [14]): 14.8 µM (≈ 5.93 µg/mL)
MIC (Staphylococcus aureus [15]): 4.4 µM (≈ 1.76 µg/mL)
CC50 (A549): 12 µM
CC50 [1]: 34.1 µM
MIC (Staphylococcus aureus [16]): 4.4 µM (≈ 1.76 µg/mL)
MIC (Pseudomonas aeruginosa [8]): 6.25 µM (≈ 2.51 µg/mL)
MIC (Staphylococcus aureus [17]): 6.6 µM (≈ 2.65 µg/mL)
MIC (Staphylococcus aureus [18]): 6.6 µM (≈ 2.65 µg/mL)
MIC (Staphylococcus aureus [19]): 2.9 µM (≈ 1.16 µg/mL)
MIC (Pseudomonas aeruginosa [20]): > 200 µM
Activity (Staphylococcus aureus [21]): Active
MIC (Staphylococcus aureus [22]): 6.6 µM (≈ 2.65 µg/mL)
MIC (Acinetobacter baumannii): > 100 µM
MIC (Escherichia coli [23]): > 100 µM

Structure (SMILES): Cc1cc(Cl)cc2sc(N(CCCn3ccnc3)CS(=O)(=O)c3ccccc3)nc12
CC50 [1]: 23.3 µM
MIC80 (Staphylococcus aureus [2]; [28]): 2.6 µM (≈ 1.2 µg/mL)

Structure (SMILES): Cc1cc(Cl)cc2sc(N(CCCn3ccnc3)C(=O)C(C)C)nc12
MIC (Escherichia coli [3]): > 100 µM
MIC (Escherichia coli [4]): > 100 µM
MIC (Escherichia coli [5]): 3.2 µM (≈ 1.21 µg/mL)
MIC (Escherichia coli [6]): 3.2 µM (≈ 1.21 µg/mL)
MIC (Pseudomonas aeruginosa [7]): > 200 µM
CC50 [1]: 46.4 µM
MIC (Pseudomonas aeruginosa [8]): 0.78 µM (≈ 0.294 µg/mL)
MIC (Pseudomonas aeruginosa [9]): > 200 µM
MIC (Pseudomonas aeruginosa [20]): 50 µM (≈ 18.8 µg/mL)
MIC (Staphylococcus aureus [2]): 2.6 µM (≈ 0.98 µg/mL)
MIC (Staphylococcus aureus [2]; [27]): 3.9 µM (≈ 1.47 µg/mL)

Structure (SMILES): CC[C@H]1OC(=O)[C@H](C)[C@@H](O[C@H]2C[C@@](C)(OC)[C@@H](O)[C@H](C)O2)[C@H](C)[C@@H](O[C@@H]2O[C@H](C)C[C@H](N(C)C)[C@H]2O)[C@](C)(O)C[C@@H](C)C(=O)[C@H](C)[C@@H](O)[C@]1(C)O [ERYTHROMYCIN]
MIC (Escherichia coli [3]): 4 µM (≈ 2.94 µg/mL)
MIC (Escherichia coli [4]): 64 µM (≈ 47 µg/mL)
MIC (Escherichia coli [6]): 2 µM (≈ 1.47 µg/mL)
MIC (Pseudomonas aeruginosa [7]): 128 µM (≈ 93.9 µg/mL)
MIC (Pseudomonas aeruginosa [8]): 0.063 µM (≈ 0.0462 µg/mL)
MIC (Pseudomonas aeruginosa [20]): 8 µM (≈ 5.87 µg/mL)

Structure (SMILES): CO[C@@H]1[C@@H](OC(N)=O)[C@@H](O)[C@H](Oc2ccc3c(O)c(NC(=O)c4ccc(O)c(CC=C(C)C)c4)c(=O)oc3c2C)OC1(C)C [NOVOBIOCIN]
MIC (Escherichia coli [3]): 64 µM (≈ 39.2 µg/mL)
MIC (Escherichia coli [5]): 0.125 µM (≈ 0.0766 µg/mL)
MIC (Escherichia coli [6]): 1 µM (≈ 0.613 µg/mL)
MIC (Pseudomonas aeruginosa [7]): > 512 µM
MIC (Pseudomonas aeruginosa [8]): 4 µM (≈ 2.45 µg/mL)
MIC (Pseudomonas aeruginosa [20]): 256 µM (≈ 157 µg/mL)

Structure (SMILES): Cc1cc(Cl)cc2sc(N(CCCn3ccnc3)Cc3ccccc3)nc12
CC50 [1]: 33.3 µM
MIC (Pseudomonas aeruginosa [8]): 3.2 µM (≈ 1.27 µg/mL)
MIC (Pseudomonas aeruginosa [20]): > 200 µM
MIC80 (Staphylococcus aureus [2]; [28]): 5.9 µM (≈ 2.34 µg/mL)

Structure (SMILES): Cc1cc(Cl)cc2sc(N(CCCn3ccnc3)C(=O)C3CC3)nc12
MIC (Escherichia coli [3]): 200 µM (≈ 75 µg/mL)
MIC (Staphylococcus aureus [10]): 3.9 µM (≈ 1.46 µg/mL)
MIC (Escherichia coli [4]): > 200 µM
MIC (Staphylococcus aureus [11]): 4.4 µM (≈ 1.65 µg/mL)
MIC (Escherichia coli [5]): < 0.2 µM
Activity (Staphylococcus aureus [24]): Active
MIC (Escherichia coli [6]): < 0.2 µM
MIC (Pseudomonas aeruginosa [7]): > 200 µM
Activity (Staphylococcus aureus [25]): Active
Activity (Staphylococcus aureus [26]): Active
MIC (Staphylococcus aureus [14]): 14.8 µM (≈ 5.55 µg/mL)
MIC (Staphylococcus aureus [15]): 4.4 µM (≈ 1.65 µg/mL)
MIC (Staphylococcus aureus [16]): 4.4 µM (≈ 1.65 µg/mL)
MIC (Pseudomonas aeruginosa [8]): 1.56 µM (≈ 0.585 µg/mL)
MIC (Pseudomonas aeruginosa [9]): > 200 µM
MIC (Staphylococcus aureus [17]): 4.4 µM (≈ 1.65 µg/mL)
MIC (Staphylococcus aureus [18]): 4.4 µM (≈ 1.65 µg/mL)
MIC (Staphylococcus aureus [19]): 2.9 µM (≈ 1.09 µg/mL)
MIC (Pseudomonas aeruginosa [20]): 50 µM (≈ 18.7 µg/mL)
MIC (Staphylococcus aureus [2]; [27]): 3.9 µM (≈ 1.46 µg/mL)
MIC (Staphylococcus aureus [22]): 14.8 µM (≈ 5.55 µg/mL)

Second part, led by results:

MIC (Staphylococcus aureus [2]; [27]): 44.4 µM (≈ 15.6 µg/mL)
Structure (SMILES): O=C(c1ccco1)N(CCCn1ccnc1)c1nc2ccccc2s1
CC50 [1]: 142 µM

MIC (Staphylococcus aureus [2]; [27]): 2.6 µM (≈ 1.04 µg/mL)
Structure (SMILES): Cc1cc(Cl)cc2sc(N(CCCn3ccnc3)C(=O)c3ccoc3)nc12
CC50 (A549): 53.4 µM

MIC (Staphylococcus aureus [2]; [27]): 2.6 µM (≈ 1.04 µg/mL)
Structure (SMILES): Cc1c(Cl)ccc2sc(N(CCCn3ccnc3)C(=O)c3ccco3)nc12
CC50 [1]: 27.4 µM

MIC (Staphylococcus aureus [10]): 2.6 µM (≈ 1.08 µg/mL)
MIC (Staphylococcus aureus [11]): 14.8 µM (≈ 6.14 µg/mL)
MIC (Staphylococcus aureus [15]): 14.8 µM (≈ 6.14 µg/mL)
MIC (Staphylococcus aureus [16]): 14.8 µM (≈ 6.14 µg/mL)
MIC (Staphylococcus aureus [17]): 14.8 µM (≈ 6.14 µg/mL)
MIC (Staphylococcus aureus [18]): 9.9 µM (≈ 4.11 µg/mL)
MIC (Staphylococcus aureus [19]): 22.2 µM (≈ 9.21 µg/mL)
MIC (Staphylococcus aureus [2]; [27]): 2.6 µM (≈ 1.08 µg/mL)
Structure (SMILES): Cc1ccoc1C(=O)N(CCCn1ccnc1)c1nc2c(C)cc(Cl)cc2s1
CC50 (A549): 90.2 µM

MIC80 (Staphylococcus aureus [2]; [28]): 3.9 µM (≈ 1.76 µg/mL)
Structure (SMILES): Cc1cc(Cl)cc2sc(N(CCCn3ccnc3)CS(=O)(=O)c3ccco3)nc12
CC50 [1]: 43.2 µM

MIC (Staphylococcus aureus [2]; [27]): 16.5 µM (≈ 6.41 µg/mL)
Structure (SMILES): O=C(c1ccco1)N(CCCn1ccnc1)c1nc2c(F)cc(F)cc2s1
CC50 [1]: 93.7 µM

MIC (Staphylococcus aureus [2]; [27]): 100 µM (≈ 36.4 µg/mL)
Structure (SMILES): Cc1cc(Cl)cc2sc(N(CCCn3ccnc3)C(=O)CN)nc12

MIC80 (Staphylococcus aureus [2]): 29.6 µM and 13.2 µM
Structure (SMILES): Cc1cc(Cl)cc2sc(N(CCCn3cc[n+](C)c3)C(=O)c3ccco3)nc12

MIC (Staphylococcus aureus [2]; [27]): 3.9 µM (≈ 1.67 µg/mL)
Structure (SMILES): Cc1cc(C(=O)N(CCCn2ccnc2)c2nc3c(C)cc(Cl)cc3s2)oc1C
CC50 (A549): 52.1 µM
